According to patent publication US6410245B1, “Compositions and methods for detecting ligand-dependent nuclear receptor and coactivator interactions” (priority 1998, dated 2002):

System: VP16TRα, Gal4-SRC-1, and UAS-TK-luciferase
Assay: positive two-hybrid system, luciferase reporter, VP16TRα and Gal4-SRC-1
Type: cell-based
Conditions: CHO cells triple transfected; dose-response curve; FIG. 8
Description: “Receptor” indicates LBD-TRX, with the LBD exemplified by a genereic nuclear receptor (NR) LBD with bound ligand (L), and the TRX domain represented by the VP16 acidic activation domain (VP16). “Coactivator” indicates a CA-TRX, with exemplary CA species being a portion of the SRC-1 protein, a portion of the CBP protein, or isolated LCD sequences from those proteins, the TRX domain is exemplified as the Gal4 DNA binding domain (DBD). “Corepressor” indicates a CR-TRX, with exemplary CR species being the interacting domains (ID1 or ID2) from SMRT or NcoR fused to the TRX domain as exemplified by Gal4 DNA binding domain (DBD). The reporter polynucleotide is exemplified as a UAS-TK-luciferase reporter containing binding sites for Gal4 DBD. CHO cells were triple transfected with these constructs and hormone added.
“Receptor” indicates LBD-TRX, with the LBD exemplified by a genereic nuclear receptor (NR) LBD with bound ligand (L), and the TRX domain represented by the VP16 acidic activation domain (VP16). “Coactivator” indicates a CA-TRX, with exemplary CA species being a portion of the SRC-1 protein, a portion of the CBP protein, or isolated LCD sequences from those proteins, the TRX domain is exemplified as the Gal4 DNA binding domain (DBD). […]

SMILES: N[C@@H](Cc1cc(I)c(Oc2ccc(O)c(I)c2)c(I)c1)C(=O)O [T3, triiodothyronine]
- reporter (luciferase) response: dose-dependent
